Earlier results on ten molecules are cited in patent US20230330115A1 (priority 2022, published 2023).

The target in data set [1] is T1, CB2 (Homo sapiens, UniProt P34972). Particulars: read-out: Functional Activity CB2.
The next data set deals with CB1 receptor. Particulars: read-out: Binding Affinity CB1.
The target of another data set is CB1 (Homo sapiens, UniProt P21554). Particulars: read-out: Functional Activity CB1.
Data set [2] addresses T1, CB2. Particulars: read-out: Binding Affinity CB2.
In a further data set the test system is rodents. Particulars: rodents administered THCB.

Entries after “also recorded” stand apart in the source; their conditions may differ.

T1 sequence (P34972 whole entry): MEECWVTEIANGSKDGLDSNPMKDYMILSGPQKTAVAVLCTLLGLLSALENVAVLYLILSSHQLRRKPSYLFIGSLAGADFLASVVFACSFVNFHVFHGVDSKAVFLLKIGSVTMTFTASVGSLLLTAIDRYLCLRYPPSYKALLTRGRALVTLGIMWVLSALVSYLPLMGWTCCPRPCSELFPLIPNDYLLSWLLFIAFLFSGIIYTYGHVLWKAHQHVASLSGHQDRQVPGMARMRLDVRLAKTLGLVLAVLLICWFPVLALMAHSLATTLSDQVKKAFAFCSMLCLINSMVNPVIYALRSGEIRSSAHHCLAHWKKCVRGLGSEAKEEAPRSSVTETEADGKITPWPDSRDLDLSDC
Sequence of CB1 (P21554 whole entry): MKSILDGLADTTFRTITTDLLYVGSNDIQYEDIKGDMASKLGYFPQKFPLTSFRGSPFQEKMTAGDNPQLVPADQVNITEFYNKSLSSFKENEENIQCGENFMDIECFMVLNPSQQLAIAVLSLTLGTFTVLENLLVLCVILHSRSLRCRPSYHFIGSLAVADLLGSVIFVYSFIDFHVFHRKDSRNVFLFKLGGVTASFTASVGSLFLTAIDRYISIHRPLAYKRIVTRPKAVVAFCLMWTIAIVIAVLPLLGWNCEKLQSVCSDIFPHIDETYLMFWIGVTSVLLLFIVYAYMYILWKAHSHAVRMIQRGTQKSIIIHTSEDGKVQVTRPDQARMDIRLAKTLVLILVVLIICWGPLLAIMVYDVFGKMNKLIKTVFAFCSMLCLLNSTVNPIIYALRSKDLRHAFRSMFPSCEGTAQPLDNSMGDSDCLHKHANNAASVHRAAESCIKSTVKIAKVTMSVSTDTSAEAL

Regarding `CCCCCc1cc2c(c(O)c1C(=O)O)[C@@H]1C=C(C)CC[C@H]1C(C)(C)O2` (relative stereo) [THCA, (—)trans-delta-9-tetrahydrocannabinolic acid], the EC50 on CB2 [1] and on CB1 was greater than 10000 nM each time. Moreover, the Ki was 1290 nM on CB1 receptor and 1650 nM on CB2 [2].

In the case of `CCCCc1cc(O)c2c(c1)OC(C)(C)[C@@H]1CCC(C)=C[C@@H]21` (relative stereo) [THCB, (—)trans-delta-9-tetrahydrocannabibutol], on CB1 receptor, the Ki is 15 nM. In addition, the formalin test outcome in the data set with rodents is “possible analgesic and anti-inflammatory properties”. Besides, in the data set on mice (first phase (10 mg/kg)), the “catalepsy, analgesia, hypolocomotion” value is recorded as “no significant catalepsy, analgesia, or hypolocomotion; also recorded: no significant catalepsy, analgesia, or hypo locomotion” and the “hypothermic effect (decrease)” value was “less than 0.5 °C”. In addition, the “activity type corroborated by Tetrad Test” value in the data set on mice (mice) is “CB1 partial agonistic activity”. Moreover, in the data set on mice (second phase (20 mg/kg)), the catalepsy and analgesia result is “significant direct effect on catalepsy and analgesia; also recorded: very significant catalepsy and analgesia effect”; the hypolocomotion entry is listed as “slight direct effect on hypolocomotion”; the hypothermic effect result was “appears to reverse; also recorded: reversal in the second phase”.

Take `CCCCCCCc1cc(O)c2c(c1)OC(C)(C)[C@@H]1CCC(C)=C[C@@H]21` (relative stereo) [THCP, (—)trans-delta-9-tetrahydrocannabiphorol]: the Ki at CB1 receptor was 1.2 nM. For the same molecule, the “hypothermia, dose dependence” value with mice (5 mg/Kg vs 10 mg/Kg) is on record as “does appear to increase at higher doses”. In the data set on mice (Tetrad Test in mice, even at low doses (5 mg/kg of body weight)), the “potency at CB1 relative to THC” value was “about 30 times”. Besides, the “effects in mice (Tetrad Test criteria)” value with mice (mice) was “hypomotility, analgesia, catalepsy and decreased rectal temperature”. Also, the “dose dependence of the effects” value in the data set with mice (mice, increasing dose (5 mg/Kg vs 10 mg/Kg)) is listed as “do not appear to increase as the dose increases”.

Turning to `CCCc1cc(O)c2c(c1)OC(C)(C)[C@@H]1CCC(C)=C[C@@H]21` (single isomer, unassigned) [THCV, (—)trans-delta-9-tetrahydrocannabivarin], the EC50 at CB2 [1] and at CB1 was greater than 10000 nM each time. Further, the values for the Ki on CB1 receptor and at CB2 [2] were 22 ± 5 nM and 105 ± 21 nM, respectively.

Turning to `CCCCCc1cc(O)c2c(c1)OC(C)(C)[C@@H]1CCC(CO)=C[C@@H]21` [11-Hydroxy, 11-OH-delta-9-tetrahydrocannabinol], the Ki on CB1 receptor was less than 200 nM. Also, at CB1, the EC50 was less than 200 nM.

Turning to `C=C(C)[C@@H]1CCC(C)=C[C@H]1c1c(O)cc(CCC)cc1O` [CBDV, Cannabidivarin], the EC50 at CB2 [1] was 3 ± 8 nM; on CB1 it was greater than 10000 nM. Further, the Ki at CB1 receptor was 503 ± 58 nM; at CB2 [2], 3970 nM.

For `CCCCCc1cc(O)c(C/C=C(\C)CCC=C(C)C)c(O)c1` [CBG, Cannabigerol], the EC50 at CB2 [1] was 1160 nM; on CB1, greater than 10000 nM. In addition, on CB1 receptor, the Ki was 440 nM.

In the case of `CCCCCc1cc(O)c(C/C=C(\C)CCC=C(C)C)c(O)c1C(=O)O` [CBGA, Cannabigerolic acid], the EC50 at CB2 [1] is 118 ± 27 nM; on CB1 it was 182 ± 32 nM. Also, the Ki at CB1 receptor is 4530 nM; at CB2 [2] it was greater than 10000 nM.

For `CCCCCc1cc(O)c2c(c1)OC(C)(C)c1ccc(C)cc1-2` [CBN, Cannabinol], the EC50 on CB2 [1] is 289 ± 38 nM; at CB1, 307 ± 39 nM. The Ki at CB1 receptor is 368 ± 121 nM; on CB2 [2], 168 ± 32 nM.

As for Cannabichromanone D [CBCN D], the EC50 was 3940 nM on CB2 [1] and 8 ± 0.9 nM at CB1. The figures for the Ki at CB1 receptor and at CB2 [2] were 7120 nM and 2830 nM, respectively.
